Here are results for 18 compounds from patent US10793568B2, “Hormone receptor modulators for treating metabolic conditions and disorders” (ARDELYX, INC., priority 2016, dated 2020).

Each structure is given as a SMILES string.

In experiment [1] the target is ligand binding domain of human FXR (Homo sapiens (Human), UniProt Q96RI1). Description: FXR ligand binding assay (LanthaScreen TR-FRET, SRC2-2 peptide recruitment). To be noted: for Emax: extent of activation relative to GW4064, read-out: % Efficacy. Background: In TR-FRET formats the signal depends on donor and acceptor labels being close together.
Experiment [2] deals with human Farnesoid X receptor ligand-binding domain/Gal4 DNA binding domain chimera (Homo sapiens (Human), UniProt Q96RI1). Description: Cell-based assay of FXR activation (FXR-UAS-bla HEK 293T beta-lactamase reporter). To be noted: cellular FXR beta-lactamase reporter assay; for Emax: HEK-293T, extent of activation relative to GW4064, read-out: % Efficacy; for EC50: FXR-UAS-bla HEK 293T cells, 16 h, pEC50 = -log EC50. In a few lines:
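HEK 293T cells stably expressing a Gal4-fused human FXR LBD and a UAS-driven beta-lactamase reporter were incubated with serially diluted compounds for 16 h at 37 °C in phenol red-free DMEM with 2% charcoal-stripped FBS. CCF4 FRET read-out: excitation 409 nm, emission 447 nm. pEC50 comes from a 3-parameter logistic fit, and efficacy is given as % of GW4064.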
A general note: In a reporter assay the amount or activity of a reporter protein is the signal.

[3] abbreviates: -log EC50, concentration required to produce 50% activation.

Chain of human Farnesoid X receptor ligand-binding domain/Gal4 DNA binding domain chimera (Q96RI1 262-486, change not shown): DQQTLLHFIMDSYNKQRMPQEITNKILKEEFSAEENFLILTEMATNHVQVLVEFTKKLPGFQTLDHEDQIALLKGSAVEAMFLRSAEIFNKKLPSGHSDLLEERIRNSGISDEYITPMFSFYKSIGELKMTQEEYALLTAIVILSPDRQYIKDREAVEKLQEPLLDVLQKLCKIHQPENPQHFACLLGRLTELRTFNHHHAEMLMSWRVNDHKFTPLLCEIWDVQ
Chain of human Farnesoid X receptor ligand-binding domain/Gal4 DNA binding domain chimera (P04386 1-147 partner): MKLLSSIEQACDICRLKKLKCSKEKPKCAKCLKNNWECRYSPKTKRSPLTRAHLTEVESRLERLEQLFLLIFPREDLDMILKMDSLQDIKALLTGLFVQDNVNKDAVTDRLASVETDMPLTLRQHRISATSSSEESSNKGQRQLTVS
Chain of ligand binding domain of human FXR (Q96RI1 262-486): as the sequence (Q96RI1 262-486, change not shown) above

What is called pEC50 is −log10 of the EC50, conventionally taken in molar units. The low end stands for a high EC50, the high end for a low EC50. Compound `O=C(O)c1cc([C@H]2CCOC2)c2nc(N3C[C@@H]4C[C@H]3C[C@H]4OCc3c(-c4c(F)cccc4Cl)noc3C3CC3)sc2c1` [Compound I-265] had a pEC50 in experiment [1] (setting [3]) of 8.4. The Emax in experiment [1] turned out to be 146%; in experiment [2], 110%. Moreover, the EC50 in experiment [2] is 0.501 nM.

On to `O=C(NS(=O)(=O)C1CC1)c1ccc(N2C[C@@H]3C[C@H]2C[C@H]3OCc2c(C3CCC4(CC3)CC4)noc2C2CC2)cc1` [Compound I-228, 4-((1S,4S,5R)-5-((5-cyclopropyl-3-(spiro[2.5]octan-6-yl)isoxazol-4-yl)methoxy)-2-azabicyclo[2.2.1]heptan-2-yl)-N-(cyclopropylsulfonyl)benzamide], for which the pEC50 in experiment [1] (setting [3]) is reported as 7. For the same compound, the results for the Emax in experiment [1] and in experiment [2] were 134% and 105%, respectively. Further, the EC50 in experiment [2] is 20 nM.

In turn, `O=C(O[C@@H]1C[C@@H]2C[C@H]1CN2c1ccc(-c2nn[nH]n2)cc1F)c1c(-c2c(Cl)cccc2Cl)noc1C1CC1` [Compound I-51, (1S,4S,5R)-2-[2-fluoro-4-(2H-1,2,3,4-tetrazol-5-yl)phenyl]-2-azabicyclo[2.2.1]heptan-5-yl 5-cyclopropyl-3-(2,6-dichlorophenyl)-1,2-oxazole-4-carboxylate] gave a pEC50 in experiment [1] (setting [3]) of 6.7. Also, the Emax in experiment [1] was determined as 269%; in experiment [2], 104%. The compound also showed an EC50 in experiment [2] of 20 nM.

Regarding `CCc1cc(C(=O)O)cc2sc(N3C(=O)[C@@H]4C[C@H]3C[C@H]4OCc3c(-c4c(Cl)cccc4Cl)noc3C3CC3)nc12` [Compound I-294, 2-[(1S,4R,5R)-5-{[5-cyclopropyl-3-(2,6-dichlorophenyl)-1,2-oxazol-4-yl]methoxy}-3-oxo-2-azabicyclo[2.2.1]heptan-2-yl]-4-ethyl-1,3-benzothiazole-6-carboxylic Acid], the pEC50 in experiment [1] (setting [3]) came out at 8.2. Besides, in experiment [1], the Emax amounted to 82%. Moreover, in experiment [2], the Emax turned out to be 104% and the EC50 is 2.51 nM.

On to `O=C(O)c1ccc(N2C(=O)[C@@H]3C[C@H]2C[C@H]3OCc2c(-c3c(Cl)cccc3Cl)noc2C2CC2)cc1` [Compound I-244, 4-[(1S,4R,5R)-5-{[5-cyclopropyl-3-(2,6-dichlorophenyl)-1,2-oxazol-4-yl]methoxy}-3-oxo-2-azabicyclo[2.2.1]heptan-2-yl]benzoic Acid], for which the pEC50 in experiment [1] (setting [3]) amounted to 8.4. Moreover, the Emax in experiment [1] was found to be 130%. Moreover, in experiment [2], the Emax turned out to be 102% and the EC50 was 2 nM.

The compound `O=C(O)c1cc(OC(F)(F)F)c2nc(N3C[C@@H]4C[C@H]3C[C@H]4OCc3c(-c4c(Cl)cccc4Cl)noc3C3(F)CC3)sc2c1` [Compound I-25, 2-[(1S,4S,5R)-5-{[3-(2,6-dichlorophenyl)-5-(1-fluorocyclopropyl)-1,2-oxazol-4-yl]methoxy}-2-azabicyclo[2.2.1]heptan-2-yl]-4-(trifluoromethoxy)-1,3-benzothiazole-6-carboxylic Acid] showed a pEC50 in experiment [1] (setting [3]) of 8.4. Besides, in experiment [1], the Emax is 172%. Besides, in experiment [2], the Emax came out at 102% and the EC50 was 0.398 nM.

As for `O=C(O)c1cc(F)c2nc(N3C[C@@H]4C[C@H]3C[C@H]4OC(=O)c3c(C45CCC(CC4)CC5)noc3C3CC3)sc2c1` [Compound I-11, 2-[(1S,4S,5R)-5-(3-{bicyclo[2.2.2]octan-1-yl}-5-cyclopropyl-1,2-oxazole-4-carbonyloxy)-2-azabicyclo[2.2.1]heptan-2-yl]-4-fluoro-1,3-benzothiazole-6-carboxylic Acid], the pEC50 in experiment [1] (setting [3]) turned out to be 7.7. In addition, in experiment [1], the Emax was 15%. In experiment [2], the Emax amounted to 28% and the EC50 was 251 nM.

In turn, `O=C(NS(=O)(=O)CC1CCOC1)c1ccc(N2C(=O)[C@@H]3C[C@H]2C[C@H]3OCc2c(-c3c(Cl)cccc3Cl)noc2C2CC2)cc1` (stereo partly drawn) [Compound I-341, 4-((1S,4R,5R)-5-((5-cyclopropyl-3-(2,6-dichlorophenyl)isoxazol-4-yl)methoxy)-3-oxo-2-azabicyclo[2.2.1]heptan-2-yl)-N-(((tetrahydrofuran-3-yl)methyl)sulfonyl)benzamide] came in with a pEC50 in experiment [1] (setting [3]) of 8.7. Also, the Emax in experiment [1] was 164%. Besides, in experiment [2], the Emax was 109% and the EC50 is 10 nM.

In turn, `COc1cc(Cl)c(-c2noc(C3CC3)c2CO[C@@H]2C[C@@H]3C[C@H]2CN3c2nc3c(F)cc(C(=O)O)cc3s2)c(Cl)c1` [Compound I-286, 2-[(1S,4S,5R)-5-{[5-cyclopropyl-3-(2,6-dichloro-4-methoxyphenyl)-1,2-oxazol-4-yl]methoxy}-2-azabicyclo[2.2.1]heptan-2-yl]-4-fluoro-1,3-benzothiazole-6-carboxylic Acid] registered a pEC50 in experiment [1] (setting [3]) of 8.7. Besides, the Emax in experiment [1] was 130%. In experiment [2], the Emax was 108% and the EC50 was 39.8 nM.

`O=C(O)c1ccc(N2C[C@@H]3C[C@H]2C[C@H]3OC(=O)c2c(-c3c(Cl)cccc3Cl)noc2C2CC2)c(F)c1` [Compound I-43, 4-[(1S,4S,5R)-5-[5-cyclopropyl-3-(2,6-dichlorophenyl)-1,2-oxazole-4-carbonyloxy]-2-azabicyclo[2.2.1]heptan-2-yl]-3-fluorobenzoic Acid] yielded a pEC50 in experiment [1] (setting [3]) of 7.8. In addition, the Emax in experiment [1] is 176%. Besides, in experiment [2], the Emax stood at 124% and the EC50 was 6.31 nM.

`O=C(NS(=O)(=O)C1CCOCC1)c1ccc(N2C[C@@H]3C[C@H]2C[C@H]3OCc2c(-c3c(Cl)cccc3Cl)noc2C2CC2)cc1` [Compound I-182, 4-[(1S,4S,5R)-5-{[5-cyclopropyl-3-(2,6-dichlorophenyl)-1,2-oxazol-4-yl]methoxy}-2-azabicyclo[2.2.1]heptan-2-yl]-N-(oxane-4-sulfonyl)benzamide]: the EC50 in experiment [1] (setting [3]) is 1.26 nM; in experiment [2], 0.158 nM. Moreover, the Emax in experiment [1] was 156%; in experiment [2], 106%.

Take `O=C(O)c1cc(C2CCOCC2)c2nc(N3C[C@@H]4C[C@H]3C[C@H]4OCc3c(-c4c(F)cccc4Cl)noc3C3CC3)sc2c1` [Compound I-264, 2-((1S,4S,5R)-5-((3-(2-chloro-6-fluorophenyl)-5-cyclopropylisoxazol-4-yl)methoxy)-2-azabicyclo[2.2.1]heptan-2-yl)-4-(tetrahydro-2H-pyran-4-yl)benzo[d]thiazole-6-carboxylic acid]: in experiment [1] (setting [3]), the pEC50 is 8.5. Also, the Emax in experiment [1] turned out to be 142%; in experiment [2], 105%. This compound gave an EC50 in experiment [2] of 0.631 nM.

For the compound `Cc1cccc(Cl)c1-c1noc(C2CC2)c1CO[C@@H]1C[C@@H]2C[C@H]1CN2c1nc2c(C)cc(C(=O)O)cc2s1` [Compound I-269], the pEC50 in experiment [1] (setting [3]) is recorded as 8.5. The Emax in experiment [1] amounted to 137%. In experiment [2], the Emax is 106% and the EC50 is 0.631 nM.

In the case of `O=C(NS(=O)(=O)C1CC1)c1ccc(N2C(=O)[C@@H]3C[C@H]2C[C@H]3OCc2c(-c3c(Cl)cccc3Cl)noc2C2CC2)cc1F` [Compound I-331, 4-((1S,4R,5R)-5-((5-cyclopropyl-3-(2,6-chlorophenyl)isoxazol-4-yl)methoxy)-3-oxo-2-azabicyclo[2.2.1]heptan-2-yl)-N-(cyclopropylsulfonyl)-2-fluorobenzamiide], the pEC50 in experiment [1] (setting [3]) came out at 8.7. For the same compound, in experiment [1], the Emax was determined as 180%. In experiment [2], the Emax amounted to 107% and the EC50 was 0.316 nM.

In the case of `O=C(NS(=O)(=O)C1CC1)c1ccc(N2C[C@@H]3C[C@H]2C[C@H]3OCc2c(-c3c(Cl)cccc3Cl)noc2C2(F)CC2)cc1` [Compound I-196, N-(cyclopropylsulfonyl)-4-((1S,4S,5R)-5-((3-(2,6-dichlorophenyl)-5-(1-fluorocyclopropyl)isoxazol-4-yl)methoxy)-2-azabicyclo[2.2.1]heptan-2-yl)benzamide], in experiment [1] (setting [3]), the pEC50 is on record as 8.5. Also, the Emax in experiment [1] was 154%. In experiment [2], the Emax is 110% and the EC50 was 0.794 nM.

As to `CCCS(=O)(=O)NC(=O)c1ccc(N2C[C@@H]3C[C@H]2C[C@H]3OCc2c(-c3c(Cl)cccc3Cl)noc2C2CC2)nc1` [Compound I-204, 6-((1S,4S,5R)-5-((5-cyclopropyl-3-(2,6-dichlorophenyl)isoxazol-4-yl)methoxy)-2-azabicyclo[2.2.1]heptan-2-yl)-N-(propylsulfonyl)nicotinamide], the pEC50 in experiment [1] (setting [3]) amounted to 8.4. Moreover, the Emax in experiment [1] was found to be 136%. In experiment [2], the Emax was found to be 104% and the EC50 was 2.51 nM.

Turning to `CS(=O)(=O)NC(=O)c1ccc(N2C[C@@H]3C[C@H]2C[C@H]3OC(=O)c2c(-c3c(Cl)cccc3Cl)noc2C2CC2)c(F)c1` [Compound I-48, (1S,4S,5R)-2-[2-fluoro-4-(methanesulfonylcarbamoyl)phenyl]-2-azabicyclo[2.2.1]heptan-5-yl 5-cyclopropyl-3-(2,6-dichlorophenyl)-1,2-oxazole-4-carboxylate], in experiment [1] (setting [3]), the pEC50 turned out to be 7.6. Moreover, the Emax in experiment [1] turned out to be 199%. In addition, in experiment [2], the Emax is 119% and the EC50 is 6.31 nM.

Consider `Cc1cccc(Cl)c1-c1noc(C2CC2)c1CO[C@@H]1C[C@@H]2C[C@H]1C(=O)N2c1ccc(C(=O)O)cc1` [Compound I-309, 4-[(1S,4R,5R)-5-{[3-(2-chloro-6-methylphenyl)-5-cyclopropyl-1,2-oxazol-4-yl]methoxy}-3-oxo-2-azabicyclo[2.2.1]heptan-2-yl]benzoic Acid], for which the pEC50 in experiment [1] (setting [3]) is 8.2. Further, the Emax in experiment [1] was 157%. Moreover, in experiment [2], the Emax was determined as 104% and the EC50 was 1.58 nM.
